Legend:
[1] = test system: normal NK cells expanded with K562-aAPC; experiment: percent inhibition of viability; higher = more inhibition; conditions: 72 h, IL-2 2.5 ng/mL
Procedure: (§1)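 Drug sensitivity and resistance testing on K562-aAPC-expanded normal NK cells: 5 concentrations (10-fold steps over a 10,000-fold range), 72 h at 37 °C, viability by CellTiter-Glo normalised to DMSO and benzethonium chloride controls; DSS from the fitted curve.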

DERL-7 (IL-2 2.5 ng/mL) [2] = experiment: as above; conditions: 72 h
IMC-1 (IL-2 20 ng/mL) [3] = experiment: as above; conditions: 72 h
KAI3 (IL-2 2.5 ng/mL) [4] = experiment: as above; conditions: 72 h
KHYG-1 (IL-2 2.5 ng/mL) [5] = experiment: as above; conditions: 72 h
NK-92 (IL-2 2.5 ng/mL) [6] = experiment: as above; conditions: 72 h
NK-YS (IL-2 2.5 ng/mL) [7] = experiment: as above; conditions: 72 h
NKL (IL-2 2.5 ng/mL) [8] = experiment: as above; conditions: 72 h
SNK-6 (IL-2 2.5 ng/mL) [9] = experiment: as above; conditions: 72 h
YT (IL-2 2.5 ng/mL) [10] = experiment: as above; conditions: 72 h
[11] = test system: normal primary NK cells, pool 1 (3 donors) (IL-2 2.5 ng/mL); experiment: as above; conditions: 72 h
[12] = test system: normal primary NK cells, pool 1 (3 donors), resting (IL-2 0 ng/mL); experiment: as above; conditions: 72 h
[13] = test system: normal primary NK cells, pool 2 (3 donors) (IL-2 2.5 ng/mL); experiment: as above; conditions: 72 h
[14] = test system: normal primary NK cells, pool 3 (3 donors) (IL-2 2.5 ng/mL); experiment: as above; conditions: 72 h
[15] = test system: normal NK cells expanded with K562-aAPC; experiment: drug sensitivity score (DSS) (DSS units); higher = more sensitive; extreme values may be limits of the assay; conditions: 72 h; IL-2 2.5 ng/mL
Procedure: as §1

DERL-7 (IL-2 2.5 ng/mL) [16] = experiment: as above; conditions: 72 h
IMC-1 (IL-2 20 ng/mL) [17] = experiment: as above; conditions: 72 h
KAI3 (IL-2 2.5 ng/mL) [18] = experiment: as above; conditions: 72 h
KHYG-1 (IL-2 2.5 ng/mL) [19] = experiment: as above; conditions: 72 h
NK-92 (IL-2 2.5 ng/mL) [20] = experiment: as above; conditions: 72 h
NK-YS (IL-2 2.5 ng/mL) [21] = experiment: as above; conditions: 72 h
NKL (IL-2 2.5 ng/mL) [22] = experiment: as above; conditions: 72 h
SNK-6 (IL-2 2.5 ng/mL) [23] = experiment: as above; conditions: 72 h
YT (IL-2 2.5 ng/mL) [24] = experiment: as above; conditions: 72 h
[25] = test system: normal primary NK cells, pool 1 (3 donors) (IL-2 2.5 ng/mL); experiment: as above; conditions: 72 h
[26] = test system: normal primary NK cells, pool 1 (3 donors), resting (IL-2 0 ng/mL); experiment: as above; conditions: 72 h
[27] = test system: normal primary NK cells, pool 2 (3 donors) (IL-2 2.5 ng/mL); experiment: as above; conditions: 72 h
[28] = test system: normal primary NK cells, pool 3 (3 donors) (IL-2 2.5 ng/mL); experiment: as above; conditions: 72 h

CCCCC/C=C/C=C1/C(=O)C=C[C@@H]1C/C=C\CCCC(=O)O [15D-PGJ2] (max concentration tested 3000 nM)
percent inhibition of viability [%]
Conditions | 0.3 nM | 3 nM | 30 nM | 300 nM | 3000 nM
DERL-7 (IL-2 2.5 ng/mL) [2] | 3.37 | -0.28 | -1.84 | -0.56 | 14.4
IMC-1 (IL-2 20 ng/mL) [3] | -2.09 | 2.04 | 0.05 | 5.09 | 1.41
KAI3 (IL-2 2.5 ng/mL) [4] | -4.96 | -2.91 | -5.31 | -1.28 | 16.5
KHYG-1 (IL-2 2.5 ng/mL) [5] | -5.02 | 1.78 | 4.62 | 3.59 | 4.59
NK-92 (IL-2 2.5 ng/mL) [6] | -11 | -12 | -5.46 | 5.82 | 13.3
NK-YS (IL-2 2.5 ng/mL) [7] | 2.56 | 5.36 | 6.24 | 9.44 | 10.4
NKL (IL-2 2.5 ng/mL) [8] | -9.35 | -3.21 | -6.49 | 3.89 | -15.1
SNK-6 (IL-2 2.5 ng/mL) [9] | 1.92 | 3.18 | 18.9 | 6.05 | 19.9
YT (IL-2 2.5 ng/mL) [10] | -2.94 | -0.98 | -4.25 | -6.3 | 12.1
[1] | -3.92 | -2.07 | 0.09 | 7.83 | 19.8
[11] | 8.24 | -4.33 | -3.39 | -9.81 | 14
[12] | 6.38 | -19 | 3.5 | -8.64 | 11.8
[13] | -13.3 | -1.17 | 5.71 | 0.83 | 16.9
[14] | -15.9 | -3.38 | 4.01 | -2.88 | 14.8

Conditions | drug sensitivity score
DERL-7 (IL-2 2.5 ng/mL) [16] | 0.17
IMC-1 (IL-2 20 ng/mL) [17] | 0
KAI3 (IL-2 2.5 ng/mL) [18] | 0.28
KHYG-1 (IL-2 2.5 ng/mL) [19] | 0
NK-92 (IL-2 2.5 ng/mL) [20] | 0.46
NK-YS (IL-2 2.5 ng/mL) [21] | 0
NKL (IL-2 2.5 ng/mL) [22] | 0
SNK-6 (IL-2 2.5 ng/mL) [23] | 1.74
YT (IL-2 2.5 ng/mL) [24] | 0.01
[15] | 1.44
[25] | 0.07
[26] | 0
[27] | 0.45
[28] | 0.13

Cc1nc(C(=O)NCC(=O)O)c(O)c2ccc(Oc3ccccc3)cc12 [FG-4592] (max concentration tested 10000 nM)
percent inhibition of viability [%]
Conditions | 1 nM | 10 nM | 100 nM | 1000 nM | 10000 nM
DERL-7 (IL-2 2.5 ng/mL) [2] | -0.63 | 3.45 | 4.49 | 0.12 | 6.99
IMC-1 (IL-2 20 ng/mL) [3] | -3.51 | -1.09 | 1.25 | -1.57 | 22.9
KAI3 (IL-2 2.5 ng/mL) [4] | 1.56 | -2.99 | 1.6 | -0.39 | 17.9
KHYG-1 (IL-2 2.5 ng/mL) [5] | 0.18 | -1.43 | 2.3 | 3.63 | 19.2
NK-92 (IL-2 2.5 ng/mL) [6] | -0.86 | -2.06 | 10.9 | 12.5 | 8.29
NK-YS (IL-2 2.5 ng/mL) [7] | -2.71 | -1.91 | 3.2 | 3.83 | 27.3
NKL (IL-2 2.5 ng/mL) [8] | -14 | -13 | -11.3 | -0.19 | 22.6
SNK-6 (IL-2 2.5 ng/mL) [9] | 3.91 | -11.4 | 5.11 | 2.73 | 28
YT (IL-2 2.5 ng/mL) [10] | 1.14 | -2.12 | -1.6 | -8.84 | 8.38
[1] | -0.43 | -0.13 | -0.05 | 6.19 | 12.6
[11] | 0.46 | 1.21 | -8.95 | -4.43 | -4.71
[12] | 5.05 | -14.3 | 2.92 | -12.2 | -4.7
[13] | -11.8 | -5.39 | -6.37 | 1.43 | 10.4
[14] | -2.12 | -3.88 | -1.26 | 5.12 | 5.24

Conditions | drug sensitivity score
DERL-7 (IL-2 2.5 ng/mL) [16] | 0
IMC-1 (IL-2 20 ng/mL) [17] | 0.7
KAI3 (IL-2 2.5 ng/mL) [18] | 0.42
KHYG-1 (IL-2 2.5 ng/mL) [19] | 1
NK-92 (IL-2 2.5 ng/mL) [20] | 1.18
NK-YS (IL-2 2.5 ng/mL) [21] | 1.72
NKL (IL-2 2.5 ng/mL) [22] | 0.76
SNK-6 (IL-2 2.5 ng/mL) [23] | 1.59
YT (IL-2 2.5 ng/mL) [24] | 0
[15] | 0.37
[25] | 0
[26] | 0
[27] | 0
[28] | 0

Reference: the supplement of paper PMC5908809
